*1 amine or outer side, *2 acyl side, *3 side chain or, on linkers, in order; H or OH if unused. Where a SMILES comes first, the peptide text is derived from it. Primed or numbered codes have the meaning given here. Side-chain parts run from the residue outwards. [ ]: non-standard residue; d: D form. The star is where a group is joined. Trp(5-OH) = N[C@@H](Cc1c[nH]c2ccc(O)cc12)C(=O)O; PEG8 = NCCOCCOCCOCCOCCOCCOCCOCCOCCC(=O)O; γGlu = O=C(O)[C@H](CCC(=O)[*:2])N[*:1]; Stearoyl = CCCCCCCCCCCCCCCCCC(=O)*; Palmitoyl = CCCCCCCCCCCCCCCC(=O)*; Nle = CCCC[C@H](N)C(=O)O; PEG2″ = not defined here; AEEA = NCCOCCOCC(=O)O; Aib = CC(C)(N)C(=O)O
Target: T1, RXFP1 (Homo sapiens, UniProt Q9HBX9)
T1 construct: OVCAR5 cells expressing endogenous RXFP1; endogenous in cells; host or cells: OVCAR5 cells
T1 sequence (Q9HBX9 1-757): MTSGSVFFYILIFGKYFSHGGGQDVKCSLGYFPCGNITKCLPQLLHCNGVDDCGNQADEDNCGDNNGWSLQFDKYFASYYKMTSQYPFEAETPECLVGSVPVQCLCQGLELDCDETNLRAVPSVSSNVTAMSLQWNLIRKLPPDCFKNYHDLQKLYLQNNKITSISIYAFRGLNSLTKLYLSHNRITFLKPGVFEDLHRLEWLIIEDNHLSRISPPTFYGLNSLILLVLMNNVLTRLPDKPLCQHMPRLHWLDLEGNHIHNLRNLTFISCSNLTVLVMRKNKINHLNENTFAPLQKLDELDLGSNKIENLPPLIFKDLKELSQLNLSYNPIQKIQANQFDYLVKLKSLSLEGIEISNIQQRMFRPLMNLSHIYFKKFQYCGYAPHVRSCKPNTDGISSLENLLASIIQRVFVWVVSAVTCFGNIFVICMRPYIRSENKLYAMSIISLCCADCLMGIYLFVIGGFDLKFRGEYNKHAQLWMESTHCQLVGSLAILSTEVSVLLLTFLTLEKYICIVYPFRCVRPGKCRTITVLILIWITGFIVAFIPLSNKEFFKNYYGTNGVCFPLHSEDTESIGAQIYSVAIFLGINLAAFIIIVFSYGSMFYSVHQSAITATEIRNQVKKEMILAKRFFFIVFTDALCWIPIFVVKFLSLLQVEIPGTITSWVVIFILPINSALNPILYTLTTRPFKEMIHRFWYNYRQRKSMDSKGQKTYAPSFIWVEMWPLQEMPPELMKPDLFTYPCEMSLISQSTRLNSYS
Test: OVCAR5 cAMP assay (HTRF), RXFP1 agonist activity
Format: cell-based
Conditions: for Emax: OVCAR-5, read-out: EMax, OVCAR 5 cells (cAMP); for EC50: OVCAR5 cells, cAMP HTRF, read-out: EC50 (nM), OVCAR 5 cells (cAMP)
In short: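 cAMP accumulation readout: after 1 mM IBMX for 40 min, endogenous-RXFP1 OVCAR5 cells got rising peptide concentrations without FCS, 30 min, 37° C, then lysis with HTRF cAMP reagents. Nonlinear regression gave EC50; Emax expressed relative to H2-relaxin maximum, same occasion.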

[1] = maximal cAMP relative to H2-relaxin maximum (100%)

## CCCCCCCCCCCCCCCC(=O)N[C@@H](CCC(=O)N[C@@H](CCC(=O)N[C@@H](CCC(=O)NCCCC[C@H](NC(=O)CCOCCOCCOCCOCCOCCOCCOCCOCCNC(=O)[C@H](CCCCNC(C)=O)NC(=O)[C@H](CCCCN)NC(=O)[C@H](CCCNC(=N)N)NC(=O)C(C)(C)NC(=O)[C@H](CO)NC(=O)[C@H](Cc1c[nH]c2ccccc12)NC(=O)[C@@H](NC(=O)[C@H](CO)NC(=O)[C@H](CCCC)NC(=O)CNC(=O)[C@H](CCC(=O)O)NC(=O)C(C)(C)NC(=O)C(C)(C)NC(=O)[C@@H](NC(=O)[C@H](CCCCNC(C)=O)NC(=O)[C@H](C)NC(=O)[C@H](CCCNC(=N)N)NC(=O)[C@@H](NC(=O)[C@H](CCCCN)NC(=O)[C@H](CCC(=O)O)NC(=O)[C@H](CCCNC(=N)N)NC(=O)CNC(=O)[C@H](CCC(=O)O)NC(=O)[C@H](CC(C)C)NC(C)=O)C(C)C)[C@@H](C)CC)[C@@H](C)O)C(N)=O)C(=O)O)C(=O)O)C(=O)O [compound 181] (Ac-LEGREKVRAK(Ac)I[Aib][Aib]EG[Nle]STWS[Aib]RKK(Ac)[PEG8]K([γGlu-γGlu-γGlu-Palmitoyl])-NH2)
[1]
  Emax: 79%

## 127 (Ac-LEGREKVRAK(Ac)I[Aib][Aib]EG[Nle]STWS[Aib]RKLK([PEG2″-PEG2″-PEG2″-γGlu-γGlu-γGlu-Stearoyl])-NH2) [compound 127]
  EC50: 4.4 nM
[1]
  EMax, OVCAR 5 cells (cAMP): 88%

## CCCCCCCCCCCCCCCC(=O)N[C@@H](CCC(=O)N[C@@H](CCC(=O)N[C@@H](CCC(=O)NCCCC[C@H](NC(=O)COCCOCCNC(=O)[C@H](CCCCN)NC(=O)[C@H](CCCNC(=N)N)NC(=O)C(C)(C)NC(=O)[C@H](CO)NC(=O)[C@H](Cc1c[nH]c2ccccc12)NC(=O)[C@@H](NC(=O)[C@H](CO)NC(=O)[C@H](CCCC)NC(=O)CNC(=O)[C@H](CCC(=O)O)NC(=O)C(C)(C)NC(=O)C(C)(C)NC(=O)[C@@H](NC(=O)[C@H](CCC(N)=O)NC(=O)[C@H](C)NC(=O)[C@H](CCCNC(=N)N)NC(=O)[C@@H](NC(=O)[C@H](CCCCN)NC(=O)[C@H](CCC(=O)O)NC(=O)[C@H](CCCNC(=N)N)NC(=O)CNC(=O)[C@H](CCC(=O)O)NC(=O)[C@H](CC(C)C)NC(C)=O)C(C)C)[C@@H](C)CC)[C@@H](C)O)C(N)=O)C(=O)O)C(=O)O)C(=O)O [compound 10] (Ac-LEGREKVRAQI[Aib][Aib]EG[Nle]STWS[Aib]RK[AEEA]K([γGlu-γGlu-γGlu-Palmitoyl])-NH2)
[1]
  Emax: 96%

## CCCCCCCCCCCCCCCCCC(=O)N[C@@H](CCC(=O)N[C@@H](CCC(=O)N[C@@H](CCC(=O)NCCOCCOCC(=O)NCCOCCOCC(=O)NCCOCCOCC(=O)NCCCC[C@H](NC(=O)[C@H](CCCCNC(C)=O)NC(=O)[C@H](CCCCN)NC(=O)[C@H](CCCNC(=N)N)NC(=O)C(C)(C)NC(=O)[C@H](CO)NC(=O)[C@H](Cc1c[nH]c2ccc(O)cc12)NC(=O)[C@@H](NC(=O)[C@H](CO)NC(=O)[C@H](CCCC)NC(=O)CNC(=O)[C@H](CCC(=O)O)NC(=O)C(C)(C)NC(=O)C(C)(C)NC(=O)[C@@H](NC(=O)[C@H](CCCCNC(C)=O)NC(=O)[C@H](C)NC(=O)[C@H](CCCNC(=N)N)NC(=O)[C@@H](NC(=O)[C@H](CCCCN)NC(=O)[C@H](CCC(=O)O)NC(=O)[C@H](CCCNC(=N)N)NC(=O)CNC(=O)[C@H](CCC(=O)O)NC(=O)[C@H](CC(C)C)NC(C)=O)C(C)C)[C@@H](C)CC)[C@@H](C)O)C(N)=O)C(=O)O)C(=O)O)C(=O)O [compound 158] (Ac-LEGREKVRAK(Ac)I[Aib][Aib]EG[Nle]ST[Trp(5-OH)]S[Aib]RKK(Ac)K([AEEA-AEEA-AEEA-γGlu-γGlu-γGlu-Stearoyl])-NH2)
  EC50: 0.14 nM
[1]
  Emax: 90%

## CCCCCCCCCCCCCCCC(=O)N[C@@H](CCC(=O)N[C@@H](CCC(=O)N[C@@H](CCC(=O)NCCCC[C@H](NC(=O)COCCOCCNC(=O)COCCOCCNC(=O)[C@H](CCCCN)NC(=O)[C@H](CCCNC(=N)N)NC(=O)C(C)(C)NC(=O)[C@H](CO)NC(=O)[C@H](Cc1c[nH]c2ccccc12)NC(=O)[C@@H](NC(=O)[C@H](CO)NC(=O)[C@H](CCCC)NC(=O)CNC(=O)[C@H](CCC(=O)O)NC(=O)C(C)(C)NC(=O)C(C)(C)NC(=O)[C@@H](NC(=O)[C@H](CCC(N)=O)NC(=O)[C@H](C)NC(=O)[C@H](CCCNC(=N)N)NC(=O)[C@@H](NC(=O)[C@H](CCCCN)NC(=O)[C@H](CCC(=O)O)NC(=O)[C@H](CCCNC(=N)N)NC(=O)CNC(=O)[C@H](CCC(=O)O)NC(=O)[C@H](CC(C)C)NC(C)=O)C(C)C)[C@@H](C)CC)[C@@H](C)O)C(N)=O)C(=O)O)C(=O)O)C(=O)O [compound 11] (Ac-LEGREKVRAQI[Aib][Aib]EG[Nle]STWS[Aib]RK[AEEA][AEEA]K([γGlu-γGlu-γGlu-Palmitoyl])-NH2)
[1]
  Emax: 89%

## CCCCCCCCCCCCCCCCCC(=O)N[C@@H](CCC(=O)N[C@@H](CCC(=O)N[C@@H](CCC(=O)N[C@@H](CCC(=O)N[C@@H](CCC(=O)NCCOCCOCC(=O)NCCOCCOCC(=O)NCCOCCOCC(=O)NCCCC[C@H](NC(=O)[C@H](CCCCN)NC(=O)[C@H](CCCCN)NC(=O)[C@H](CCCNC(=N)N)NC(=O)C(C)(C)NC(=O)[C@H](CO)NC(=O)[C@H](Cc1c[nH]c2ccccc12)NC(=O)[C@@H](NC(=O)[C@H](CO)NC(=O)[C@H](CCC(N)=O)NC(=O)CNC(=O)[C@H](CCC(=O)O)NC(=O)C(C)(C)NC(=O)C(C)(C)NC(=O)[C@@H](NC(=O)[C@H](CCCCNC(C)=O)NC(=O)[C@H](C)NC(=O)[C@H](CCCNC(=N)N)NC(=O)[C@@H](NC(=O)[C@H](CCCCN)NC(=O)[C@H](CCC(=O)O)NC(=O)[C@H](CCCNC(=N)N)NC(=O)CNC(=O)[C@H](CCC(=O)O)NC(=O)[C@H](CC(C)C)NC(C)=O)C(C)C)[C@@H](C)CC)[C@@H](C)O)C(N)=O)C(=O)O)C(=O)O)C(=O)O)C(=O)O)C(=O)O [compound 111] (Ac-LEGREKVRAK(Ac)I[Aib][Aib]EGQSTWS[Aib]RKKK([AEEA-AEEA-AEEA-γGlu-γGlu-γGlu-γGlu-γGlu-Stearoyl])-NH2)
  EC50: 0.21 nM
[1]
  Emax: 92%

## CCCCCCCCCCCCCCCC(=O)N[C@@H](CCC(=O)NCCCC[C@H](NC(=O)CC[C@H](NC(=O)CC[C@H](NC(=O)COCCOCCNC(=O)COCCOCCNC(=O)COCCOCCNC(=O)[C@H](CCCCNC(C)=O)NC(=O)[C@H](CCCCN)NC(=O)[C@H](CCCNC(=N)N)NC(=O)C(C)(C)NC(=O)[C@H](CO)NC(=O)[C@H](Cc1c[nH]c2ccccc12)NC(=O)[C@@H](NC(=O)[C@H](CO)NC(=O)[C@H](CCCC)NC(=O)CNC(=O)[C@H](CCC(=O)O)NC(=O)C(C)(C)NC(=O)C(C)(C)NC(=O)[C@@H](NC(=O)[C@H](CCC(N)=O)NC(=O)[C@H](C)NC(=O)[C@H](CCCNC(=N)N)NC(=O)[C@@H](NC(=O)[C@H](CCCCN)NC(=O)[C@H](CCC(=O)O)NC(=O)[C@H](CCCNC(=N)N)NC(=O)CNC(=O)[C@H](CCC(=O)O)NC(=O)[C@H](CC(C)C)NC(C)=O)C(C)C)[C@@H](C)CC)[C@@H](C)O)C(=O)O)C(=O)O)C(N)=O)C(=O)O [compound 119] (Ac-LEGREKVRAQI[Aib][Aib]EG[Nle]STWS[Aib]RKK(Ac)[AEEA][AEEA][AEEA][γGlu][γGlu]K([γGlu-Palmitoyl])-NH2)
  EC50: 1.21 nM
[1]
  Emax: 83%

From patent US10988523B2, “Modified lipidated Relaxin B chain peptides and their therapeutic use” (Sanofi, priority 2018, dated 2021)
